# In patent US20230364032A1, “USE OF 2-HOBA TO TREAT ATHEROSCLEROSIS” (Vanderbilt University, priority 2020, published 2023):
# Entries after “also recorded” stand apart in the source; their conditions may differ.
# Tests used:
# [1] = system: atherosclerotic lesions of Ldlr−/− mice; test: Masson's Trichrome staining of lesions (collagen, fibrous cap, necrotic area); assay type: in vivo, mouse
# Text: Masson's Trichrome Staining was applied for measurement of atherosclerotic lesion collagen content, fibrous cap thickness and necrotic core size following the manufacturer's instructions (Sigma) and as previously described^30. Briefly, 5 μm cross-sections of proximal atherosclerotic aorta root were fixed with Bouin's solution, stained with hematoxylin for nuclei (black) and biebrich scarlet and phosphotungstic/phosphomolybdic acid for cytoplasm (red), and aniline blue for collagen (blue). Images were captured and analyzed for collagen content, atherosclerotic cap thickness and necrotic core by ImageJ software as described previously^30. The necrotic area is normalized to the total lesion area and is expressed as the % necrotic area.
# cyclooxygenase (COX) = test: Urinary prostaglandin metabolites (LC/MS); assay type: in vivo, mouse
# Protocol: The urine samples were collected in metabolic cages with 2 mice per cage after 12 weeks of treatment with 2-HOBA or water. The contents of PGE-M (20A), tetranor PGD-M (20B), 2,3-dinor-6-keto-PGF1 (20C) and 11-dehydro TxB2 (20D) were analyzed by LC/MS/MS. (20A-20D) Mean±SEM shown for each, N.S., Mann-Whitney Test.
# Concentrations of PGE-M, tetranor PGD-M, 11-dehydro-TxB^2 (TxB-M) and PGI-M in urine were measured in the Eicosanoid Core Laboratory at Vanderbilt University Medical Center. Urine (1 mL) was acidified to pH 3 with HCl. [^2H4]-2,3-dinor-6-keto-PGF1a (internal standard for PGI-M quantification) and [^2H4]-11-dehydro-TxB2 were added, and the sample was treated with methyloxime HCl to convert analytes to the O-methyloxime derivative. The derivatized analytes were extracted using a C-18 Sep-Pak (Waters Corp. Milford, MA USA) and eluted with ethyl acetate as previously described^68. A [^2H6]—O-methyloxime PGE-M deuterated internal standard was then added for PGE-M and PGD-M quantification. The sample was dried under a stream of dry nitrogen at 37° C. and then reconstituted in 75 μL mobile phase A for LC/MS analysis.
# LC was performed on a 2.0×50 mm, 1.7 μm particle Acquity BEH C18 column (Waters Corporation, Milford, MA, USA) using a Waters Acquity UPLC. […]
# Urinary creatinine levels are measured using a test kit from Enzo Life Sciences. […]
# [2] = system: Apoe−/− macrophage foam cells; test: Capacity of HDL from treated mice to reduce macrophage cholesterol; assay type: cell-based, mouse; settings: for efficiency of HDL at reducing cholesterol stores in Apoe−/− macrophage foam cells: HDL isolated from treated Ldlr−/− mice, 25 μg protein/ml, 24 h
# Protocol: FIGS. 7A-7G show the effects of 2-HOBA on MDA-HDL adducts and HDL function. (7A) The levels or MDA adducts were measured by ELISA in HDL isolated from Ldlr mice treated as described in FIG. 1. Data are presented as mean±SEM (N=8 pet group), *** p<0.001, One-way ANOVA with Bonferroni's post hoc test. (7B) Western blots of apoAl and MDA-apoAl in HDL isolated from plasma by immunoprecipitation using primary anti-apoAl antibody. Ldlf mice were treated as described In FIG. 1 and apoAl and MDA-apoAl from Ldlr mice consuming a chow diet are included f0t comparison. (7C) Quantitation using lmageJ software of the mean density ratio (arbitrary units) of MDA-apoAl to apoAl detected by Western blotting (7B). (7D The HDL was isolated from the plasma of Ld/r-mice consuming a western diet for 16 weeks and treated with 2-HOBA or 4-HOBA or vehicle. Cholesterol enriched macrophages were incubated for 24 h with HDL (25 μg protein/ml). and the % reduction in cellular cholesterol content measured. Data presented as mean±SEM. N=7 per group, *p<0.05.**p<0.01, One-way ANOVA with Bonferroni's post hoc test (7E) The MDA adducts were measured by ELISA in HDL isolated from control or FH subjects before and after LDL apheresis. N=7 or 8, ***p<0.001, One-way ANOVA with Bonferroni's post hoc test. (7F) The MDA-Lysyl crosslink content in HDL from control or FH subjects (n=6 per group), p=0.02, Mann-Whitney test (7G) The capacity of HDL from control or FH subjects pre and post LDL apheresis (n=7 per group) to reduce the cholesterol content of apoE macrophages.
# HDL was isolated from mouse plasma using HDL Purification Kit (Cell BioLabs, Inc.) following the manufacturer's protocol. Briefly, apoB containing lipoproteins and HDL were sequentially precipitated with dextran sulfate. The HDL was then resuspended and washed. After removing the dextran sulfate, the HDL was dialyzed against PBS. […] Cellular cholesterol was measured before and after incubation with HDL using an enzymatic cholesterol assay as described^61.
structure (smiles),measurement,setting,value
"NCc1ccccc1O [2-HOBA, 2-hydroxybenzylamine]",features of stable atherosclerotic plaques,[1],promotes features of stable atherosclerotic plaques
same,increase of collagen content of the proximal aorta,[1]; compared to 4-HOBA,2.6 fold
same,increase of collagen content of the proximal aorta,[1]; compared to vehicle,2.7 fold
same,decrease of % of necrotic area in the proximal aorta,[1]; versus 4-HOBA,73.5%
same,"fibrous cap thickness, fold greater",[1]; versus 4-HOBA,2.29 fold
same,"levels of major urinary prostaglandin metabolites (2,3-dinor-6-keto-PGF1, 11-dehydro TxB2, PGE-M, PGD-M)","cyclooxygenase (COX); Ldlr−/− mice, compared to the vehicle control",no significant differences; also recorded: did not impact
same,inhibition of COX in vivo,cyclooxygenase (COX); mice,not significantly inhibiting COX
same,capacity of mouse HDL to reduce macrophage cholesterol stores,[2]; HDL from treated Ldlr−/− mice,increased; also recorded: enhanced capacity
same,efficiency of HDL at reducing cholesterol stores in Apoe−/− macrophage foam cells,[2]; versus 4-HOBA treated mice,1.7 fold
same,efficiency of HDL at reducing cholesterol stores in Apoe−/− macrophage foam cells,[2]; versus vehicle treated mice,2.2 fold
